Measurements taken from ChEMBL document CHEMBL1149353, “Exploring alternative Zn-binding groups in the design of HDAC inhibitors: squaric acid, N-hydroxyurea, and oxazoline analogues of SAHA” (Bioorg Med Chem Lett, 2006).
Active and inactive are the calls of the source. No cut-off for these calls is given here.

molecular target: Histone deacetylase (Homo sapiens) (UniProt Q13547+O15379+Q9UBN7+Q92769+Q9UQL6+Q8WUI4+Q9BY41+Q96DB2+P56524+Q9UKV0+Q969S8); assay: Inhibition of HDAC at <1 uM; format: protein assay

Row | Structure (SMILES) | Activity
1 | COc1ccc(COC(CCCCCNC(=O)NO)C(=O)Nc2ccccc2)cc1 (stereo not drawn) | inactive
2 | O=C(CCCCCNc1c(O)c(=O)c1=O)Nc1ccccc1 | inactive
3 | CN(O)c1c(SCCCCC(=O)Nc2ccccc2)c(=O)c1=O | inactive
4 | O=C(CCCCC/N=c1/c(S)c(O)c1=O)Nc1ccccc1 | inactive
5 | O=C(CCCCNc1c(O)c(=O)c1=O)Nc1ccccc1 | inactive
6 | O=C(CCCCCCC1=N[C@@H](COCc2ccccc2)CO1)Nc1ccccc1 | inactive

Now from value to molecule:

Row | Activity | Structure (SMILES)
7 | inactive | CSc1c(NCCCCCC(=O)Nc2ccccc2)c(=O)c1=O
8 | inactive | O=C(CCCC/N=c1/c(S)c(O)c1=O)Nc1ccccc1
9 | inactive | O=C(CCCCCC/N=c1/c(S)c(O)c1=O)Nc1ccccc1
10 | inactive | CSc1c(NCCCCC(=O)Nc2ccccc2)c(=O)c1=O
11 | inactive | CSc1c(NCCCCCCC(=O)Nc2ccccc2)c(=O)c1=O
12 | inactive | O=C(CCCCCCC1=N[C@@H](CO)CO1)Nc1ccccc1
13 | inactive | O=C(CCCCCCNc1c(O)c(=O)c1=O)Nc1ccccc1
